According to patent publication US9487508B2, “SGC stimulators” (IRONWOOD PHARMACEUTICALS, INC., priority 2012, dated 2016):

System: Thoracic aortic rings
Assay: Thoracic aortic rings assay (Example 5)
Parameters: species or system Sprague-Dawley rats
Details: rings contracted with 100 ng/mL phenylephrine
Experimental: Thoracic aortic rings were dissected from anesthetized (isoflurane) male Sprague-Dawley rats weighing 275-299 g. Tissues were immediately transferred to ice-cold Krebs-Henseleit solution, which had been aerated with 95% O2 and 5% CO2 for 30 minutes. Following removal of connective tissue, aortic sections were cut into 4 rings (˜2 mm each) and suspended on 2 L-shaped hooks, with one hook fixed at the bottom of the tissue bath (Schuler Organ Bath, Harvard Apparatus) and the other connected to a force transducer (F30 Force Transducer, Harvard Apparatus). Baths contained Krebs Henseleit solution (10 mL) heated to 37° C. and aerated with 95% O2 and 5% CO2. Rings were brought to an initial tension of 0.3-0.5 g and gradually raised to a resting tension of 1.0 g over 60 minutes. Rings were rinsed with Krebs Henseleit solution (heated to 37° C. and aerated with 95% 02 and 5% CO2) at 15 minute intervals until a stable baseline was obtained. Rings were considered to be stable after a resting tension of 1.0 g was maintained (for approximately 10 minutes) without need for adjustment. Rings were then contracted with 100 ng/mL phenylephrine by adding 100 uL of a 10 µg/mL phenylephrine stock solution. Tissues achieving a stable contraction were then treated in a cumulative, dose dependent manner with test compounds prepared in dimethylsulfoxide (DMSO). In some cases, tissues were rinsed three times over a 5 minute period with Krebs-Heinseleit's solution (heated to 37° C. and aerated with 95% 02 and 5% CO2), allowed to stabilize at baseline, and then used for characterization of other test articles or DMSO effects. All data were collected using the HSE-ACAD software provided by Harvard Apparatus. Percent relaxation effects were calculated in Microsoft Excel using the recorded tension value of 100 ng/mL phenylephrine treatment as 0% inhibition and treatment with 100 μM 3-isobutyl-1-methylxanthine as 100% inhibition. EC50 values were calculated from concentration-response curves generated with GraphPad Prism Software.
As an alternative thoracic aortic rings assay, the procedure of Example 5 was used except that percent relaxation effects were calculated in Microsoft Excel using the recorded tension value of 100 ng/mL phenylephrine treatment as 0% inhibition and, after washing the tissue with buffer, the original resting tension of the tissue was used as 100% inhibition.
The biological data for some of the compounds of Formula I or Formula Ib, in comparison with the known compound, BAY 41-2272, as the reference compound, determined by the thoracic aorta ring assay of Example 5 are presented in Table 6 below.

- EC50 (Rattus norvegicus, read-out: Aortic Ring EC50): < 2 µM
SMILES: Nc1ccnc(-n2cc(-c3ncco3)c(Cc3ccccc3F)n2)n1 [Compound I-2]
- Aortic Ring Percent Relaxation at 1 μM (1 μM, resting tension = 100%): E (E = 60 or <80%)
- Aortic Ring Percent Relaxation at 3 μM (3 μM, resting tension = 100%): F (F = 80 to <100%)
- Aortic Ring Percent Relaxation at 10 μM (10 μM, resting tension = 100%): G (G = 100 to <120%)
